According to PubChem BioAssay (NCI):
Values joined by “and” are separate entries in the source; they are usually repeats but may differ in a detail not shown here. Equal entries are not always repeated.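 Cells were grown in 96-well plates and exposed to each compound for 48 hours at five concentrations; endpoints were interpolated linearly between bracketing concentrations, or set to the highest concentration if not reached. GI50 is the concentration that inhibits growth by half. At the TGI there is no net growth.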 *1 amine or outer side, *2 acyl side, *3 side chain or, on linkers, in order; H or OH if unused. Where a SMILES comes first, the peptide text is derived from it. [ ]: non-standard residue; d: D form. The star is where a group is joined. X11 = C/C=C/CC(C)C(O)[C@H](N[*:1])C(=O)[*:2]; Decanoyl = CCCCCCCCCC(=O)*; Leu(ol) = CC(C)C[C@H](N)CO; Iva = CC[C@](C)(N)C(=O)O; Aib = CC(C)(N)C(=O)O

Test system: MDA-MB-468 breast
Experiment: NCI anticancer screen, dose series, 48 h

In the case of `COc1ccc(C(=O)c2cc(C)c(OC)c(C)c2)c(OC)c1NC(C)=O`, the GI50 is reported as 159 nM.
`c1ccc(OCCC[P+](c2ccccc2)(c2ccccc2)c2ccccc2)cc1` was tested, and the GI50 was 230 nM and the TGI was 1.49 µM.
`N#CC1=C(N)Oc2c(ccc3ccccc23)C1c1cc(=O)oc2ccc(Cl)cc12` (centres undefined) was tested, and the GI50 was 520 nM and the TGI was 33 µM.
For `Clc1ccc(-c2c3ccc(=[N+]4CCCCC4)cc-3oc3cc(N4CCCCC4)ccc23)cc1`, the GI50 was 104 nM and the TGI was 0.261 µM.
Work on `COc1cc(C2C3=C(COC3=O)N(CCO)c3cc4c(cc32)OCCO4)cc(OC)c1OC` (centres undefined) yielded a GI50 of 106 nM and a TGI of 0.319 µM.
Work on `CNCCCNc1nc2ccccc2c2c(=O)c3cc(OC)ccc3sc12` yielded a GI50 of 1760 nM and a TGI of 3.47 µM.
`COc1cccc2cc(N(C)c3nc(C)nc4c3CCC4)ccc12` showed a GI50 of under 10 nM and a TGI of 20.5 µM.
With `CS(=O)(=O)Nc1cccc(-c2ccc3ncnc(Nc4ccc(F)c(Cl)c4)c3c2)c1` the GI50 was 108 nM and the TGI was 0.86 µM.
Molecule `COc1ccc(C(=O)/C=C/c2cc(-c3cc(OC)c(OC)c(OC)c3)n[nH]2)cc1` has a GI50 of 1290 nM and a TGI of 2.65 µM.
Molecule `CS(=O)(=O)c1ccc(Nc2nc(N[C@H]3CCCC[C@H]3N)nc3cc[nH]c(=O)c23)cc1` has a GI50 of 338 nM and a TGI of 1.46 µM.
For `CN(C)CCCn1c(=O)c2ccccc2c2cnc3[nH]ccc3c21`, the GI50 was 493 nM and the TGI was 2.53 µM.
Molecule `CC/C(Cc1ccccc1)=C(\c1ccc(OCCN2CCCC2)cc1)c1ccc(OC(=O)NCc2ccccc2)cc1` has a GI50 of 1990 nM and a TGI of 3.93 µM.
`CCCCCCSSC(=S)N(CC)CC` showed a GI50 of 29900 nM and a TGI of over 100 µM.
With `CSc1nc2nc3c(nc2c(=O)n1C)C(=O)c1ccccc1C3=O` the GI50 was 140 nM and the TGI was 0.352 µM.
In the case of `COc1ccc(-c2cc3c(C)nc(N)nc3n(C3CCC(OCCO)CC3)c2=O)cn1` (centres undefined), the GI50 is reported as 41.7 nM and 32.3 nM and the TGI is reported as 0.27 µM and 0.256 µM.
`COC(=O)N1CCN(CCNCc2ccc(NC(=O)c3ccc(C)c(C#Cc4cnc5cccnn45)c3)cc2C(F)(F)F)CC1` was tested, and the GI50 was 1580 nM and the TGI was 3.2 µM.
Work on `O=C(NC(=O)c1c(Cl)nc2sccn12)Nc1ccc(Cl)cc1` yielded a GI50 of 3950 nM and a TGI of 35.7 µM.
For `NC(=O)c1ccc(Oc2nccc(-c3c(-c4ccc(F)cc4)ncn3C3CCNCC3)n2)cc1`, the GI50 was 7400 nM and the TGI was over 25 µM.
With `CC(C)N(Cc1ccc(CN(C(=O)CCl)C(C)C)cc1)C(=O)CCl` the GI50 was 1740 nM and the TGI was 3.94 µM.
In the case of `CCN(CC)CCCC(C)Nc1cc(-c2cccc(OC(F)(F)F)c2)nc2ccc(N3CCCC3)cc12` (centres undefined), the GI50 is reported as 43.5 nM and the TGI is reported as 44 µM.
`Cn1cc(C2=C(c3c[nH]c4ccccc34)C(=O)NC2=O)c2ccccc21` was tested, and the GI50 was 470 nM and the TGI was over 25 µM.
In the case of `Cc1cc(C)c(C#N)c(Sc2nc(C)c([N+](=O)[O-])c(C)c2C#N)n1`, the GI50 is reported as 1650 nM and the TGI is reported as 3.77 µM.
Work on `Cc1c(C#N)cccc1[C@@H](C)Nc1nnc(C)c2cnc(N3CCOCC3)cc12` yielded a GI50 of 7630 nM and a TGI of 38.1 µM.
With `C#Cc1cccc(Nc2nc(Cl)nc3cc(NC(=O)CCl)ccc23)c1` the GI50 was 500 nM and the TGI was 1.17 µM.
`C/C=C/CC(C)C(O)[C@H](NC(=O)[C@@H]1CCCN1C(=O)[C@](C)(CC)NC(=O)CCCCCCCCC)C(=O)N[C@@](C)(CC)C(=O)N[C@@H](CCC(N)=O)C(=O)N[C@H](CCC(N)=O)C(=O)NC(C)(C)C(=O)NC(C)(C)C(=O)N[C@@H](CCC(N)=O)C(=O)N[C@H](CC(C)C)C(=O)N[C@H](CO)CC(C)C` (stereo partly drawn) (Decanoyl-[Iva]P[X11][Iva]Q[dQ][Aib][Aib]Q[dL][Leu(ol)]) was tested, and the GI50 was 1780 nM and the TGI was 3.38 µM.
`COc1cc(OC)cc(C2C3=C(COC3=O)Nc3cc(OC)ccc32)c1` (centres undefined) gave a GI50 of under 10 nM and a TGI of under 0.0122 µM.
Molecule `O=C(NCC(F)(F)F)Nc1cccc(-c2cnc3cc(-c4ccc(F)cc4)ccn23)c1` has a GI50 of 339 nM and a TGI of 1.93 µM.
`O=C1CSC(c2ccccc2Cl)N1c1nnc(Cn2cnnc2)o1` (centres undefined) showed a GI50 of 3850 nM and a TGI of 17.2 µM.
In the case of `Cc1ccc(-c2nc(/C=N/Nc3cc(C)nc4ccc(Cl)cc34)c(C)o2)cc1`, the GI50 is reported as 1730 nM and the TGI is reported as 3.26 µM.
`COc1ccc(-c2nc(-c3nc4ccc(C)cc4[nH]3)cc3c2[nH]c2ccccc23)cc1` showed a GI50 of 2690 nM and a TGI of 25 µM.
